We go through 19 compounds from patent US9856216B2, “Compounds as TNIK, IKKε and TBK1 inhibitors and pharmaceutical composition comprising same” (GREEN CROSS CORPORATION, priority 2015, dated 2018).

SMILES strings stand for the structures.

For this assay, the target named is T1, TNIK (Homo sapiens, UniProt Q9UKE5).
T1 construct: purchased Promega V4158
Kind of assay: ADP-Glo Kinase Assay, inhibition activity on TNIK. The format is biochemical. The conditions noted are these: read-out: TNIK. How it is done: The inhibition activities on TNIK, IKKε and TBK1 were measured by a luminometer, TNIK/IKKε/TBK1 Kinase Enzyme System (Promega, Ca# V4158; Invitrogen, PR8031B, Promega, Ca# V3991) and ADP-Glo Kinase Assay using ADP-Glo™ Kinase Analysis Kit (Promega, Ca# V9101) and a kinase reaction buffer [40 mM Tris(pH 7.5), 20 mM MgCl2, 0.1 mg/mL BSA] in accordance with the manufacturer's protocol.

T1 sequence (Q9UKE5 1-367 limits assumed): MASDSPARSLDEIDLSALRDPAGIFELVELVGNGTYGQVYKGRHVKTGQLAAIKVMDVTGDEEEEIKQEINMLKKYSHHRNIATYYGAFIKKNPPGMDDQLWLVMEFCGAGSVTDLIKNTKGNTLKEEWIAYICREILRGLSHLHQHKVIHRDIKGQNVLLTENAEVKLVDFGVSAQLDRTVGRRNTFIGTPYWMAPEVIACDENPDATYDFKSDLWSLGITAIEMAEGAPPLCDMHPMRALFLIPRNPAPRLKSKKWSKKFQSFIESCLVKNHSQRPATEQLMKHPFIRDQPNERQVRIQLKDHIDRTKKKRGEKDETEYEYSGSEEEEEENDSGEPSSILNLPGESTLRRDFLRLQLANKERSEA

As to `COc1cccc(-c2ccc(NC(=O)c3ccco3)c3c2CNC3=O)c1OC` [Example 134, N-(7-(2,3-dimethoxyphenyl)-3-oxoisoindolin-4-yl)furan-2-carboxamide], the IC50 was 54 nM.

Take `COc1cccc(-c2ccc(NC(=O)c3ccc(F)cc3)c3c2CNC3=O)c1OC` [Example 135, N-(7-(2,3-dimethoxyphenyl)-3-oxoisoindolin-4-yl)-4-fluoro benzamide]: the IC50 turned out to be 140 nM. For `COc1cccc(-c2ccc(NC(=O)c3cccs3)c3c2CNC3=O)c1OC` [Example 136, N-(7-(2,3-dimethoxyphenyl)-3-oxoisoindolin-4-yl)thiophene-2-carboxamide], the IC50 is 68 nM.

As to `Cc1cc(F)ccc1C(=O)Nc1ccc(-c2ccccc2)c2c1C(=O)NC2` [Example 137, 4-Fluoro-2-methyl-N-(3-oxo-7-phenylisoindolin-4-yl) benzamide], the IC50 was more than 20000 nM.

With `COc1ccccc1-c1ccc(NC(=O)c2ccc(NC(C)=O)cc2)c2c1CNC2=O` [Example 138, 4-Acetamido-N-(7-(2-methoxyphenyl)-3-oxoisoindolin-4-yl) benzamide], the IC50 was determined as 200 nM.

In the case of `CN(C)c1ccc(C(=O)Nc2ccc(-c3ccccc3)c3c2C(=O)NC3)cc1` [Example 139, 4-(Dimethylamino)-N-(3-oxo-7-phenylisoindolin-4-yl) benzamide], the IC50 worked out at 1800 nM. In the case of `CC(=O)Nc1ccc(C(=O)Nc2ccc(-c3ccco3)c3c2C(=O)NC3)cc1` [Example 140, 4-Acetamido-N-(7-(furan-2-yl)-3-oxoisoindolin-4-yl) benzamide], the IC50 stood at 300 nM. With `COc1ccccc1-c1ccc(NC(=O)c2ccc(F)cc2)c2c1CNC2=O` [Example 141, 4-Fluoro-N-(7-(2-methoxyphenyl)-3-oxoisoindolin-4-yl) benzamide], the IC50 stood at 1600 nM.

On to `O=C(Nc1ccc(-c2ccccc2)c2c1C(=O)NC2)c1ccccc1F` [Example 142, 2-Fluoro-N-(3-oxo-7-phenylisoindolin-4-yl)benzamide], for which the IC50 was determined as 950 nM. For `O=C(Nc1ccc(-c2ccccc2)c2c1C(=O)NC2)c1ccc(Cl)cc1` [Example 143, 4-Chloro-N-(3-oxo-7-phenylisoindolin-4-yl)benzamide] the value was 1100 nM; for `COc1ccccc1-c1ccc(NC(=O)c2ccccc2)c2c1CNC2=O` [Example 144, N-(7-(2-methoxyphenyl)-3-oxoisoindolin-4-yl)benzamide], 700 nM; for `COc1cccc(-c2ccc(NC(=O)c3ccccc3)c3c2CNC3=O)c1` [Example 145, N-(7-(3-methoxyphenyl)-3-oxoisoindolin-4-yl)benzamide], 1300 nM.

With `O=C(Nc1ccc(-c2ccsc2)c2c1C(=O)NC2)c1ccccc1` [Example 146, N-(3-oxo-7-(thiophen-3-yl)isoindolin-4-yl)benzamide], the IC50 is more than 20000 nM. In the case of `N#Cc1cccc(-c2ccc(NC(=O)c3ccccc3)c3c2CNC3=O)c1` [Example 147, N-(7-(3-cyanophenyl)-3-oxoisoindolin-4-yl)benzamide], the IC50 was more than 20000 nM. In the case of `CN(C)c1cccc(-c2ccc(NC(=O)c3ccccc3)c3c2CNC3=O)c1` [Example 148, N-(7-(3-(dimethylamino)phenyl)-3-oxoisoindolin-4-yl) benzamide] it was 7400 nM; in that of `O=C(Nc1ccc(-c2ccccc2F)c2c1C(=O)NC2)c1ccccc1` [Example 149, N-(7-(2-fluorophenyl)-3-oxoisoindolin-4-yl)benzamide], 3800 nM; in that of `O=C(Nc1ccc(-c2ccoc2)c2c1C(=O)NC2)c1ccccc1` [Example 150, N-(7-(furan-3-yl)-3-oxoisoindolin-4-yl)benzamide], 2700 nM. On to `O=C(Nc1ccc(-c2cccc(F)c2)c2c1C(=O)NC2)c1ccccc1` [Example 151, N-(7-(3-fluorophenyl)-3-oxoisoindolin-4-yl)benzamide], for which the IC50 was 1500 nM. As to `O=C(Nc1ccc(-c2cccnc2)c2c1C(=O)NC2)c1ccccc1` [Example 152, N-(3-oxo-7-(pyridin-3-yl)isoindolin-4-yl)benzamide], the IC50 is more than 20000 nM.
